Where “and” joins values, the source holds several entries; their conditions need not be identical. Identical values can stand only once. Toxic doses and inconclusive results are not listed.
System: BDF1 mice, P388 leukemia ip, median survival T/C
Assay: NCI In Vivo Anticancer Drug Screen. Data for tumor model P388 Leukemia (intraperitoneal) in B6D2F1 (BDF1) mice
Details: endpoint: median survival time, higher = longer survival
Procedure, shortened: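 Transplantable tumour in mice; compound vs vehicle dosing; survival scored; ratio of treated to control reported.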

[1] = dose: 3.13 mg/kg/injection, schedule: Q01DX009 (ip), vehicle: saline with Tween-80
[2] = dose: 12.5 mg/kg/injection, schedule: Q01DX009 (ip), vehicle: saline
[3] = dose: 25.0 mg/kg/injection, schedule: Q01DX009 (ip), vehicle: saline
[4] = dose: 25.0 mg/kg/injection, schedule: Q04DX003 (ip), vehicle: saline
[5] = dose: 50.0 mg/kg/injection, schedule: Q01DX009 (ip), vehicle: saline
[6] = dose: 50.0 mg/kg/injection, schedule: Q04DX003 (ip), vehicle: saline
[7] = dose: 100.0 mg/kg/injection, schedule: Q04DX003 (ip), vehicle: saline
[8] = dose: 200.0 mg/kg/injection, schedule: Q04DX003 (ip), vehicle: saline
[9] = dose: 400.0 mg/kg/injection, schedule: Q04DX003 (ip), vehicle: saline
[10] = dose: 100.0 mg/kg/injection, schedule: Q01DX009 (ip), vehicle: Klucel (hydroxypropylcellulose) (HPC)
[11] = dose: 100.0 mg/kg/injection, schedule: Q04DX003 (ip), vehicle: Klucel (hydroxypropylcellulose) (HPC)
[12] = dose: 200.0 mg/kg/injection, schedule: Q01DX009 (ip), vehicle: Klucel (hydroxypropylcellulose) (HPC)
[13] = dose: 200.0 mg/kg/injection, schedule: Q04DX003 (ip), vehicle: Klucel (hydroxypropylcellulose) (HPC)
[14] = dose: 400.0 mg/kg/injection, schedule: Q01DX009 (ip), vehicle: Klucel (hydroxypropylcellulose) (HPC)
[15] = dose: 400.0 mg/kg/injection, schedule: Q04DX003 (ip), vehicle: Klucel (hydroxypropylcellulose) (HPC)
[16] = dose: 100.0 mg/kg/injection, schedule: Q01DX009 (ip), vehicle: saline
[17] = dose: 200.0 mg/kg/injection, schedule: Q01DX009 (ip), vehicle: saline
[18] = dose: 400.0 mg/kg/injection, schedule: Q01DX009 (ip), vehicle: saline
[19] = dose: 6.25 mg/kg/injection, schedule: Q01DX009 (ip), vehicle: saline with Tween-80
[20] = dose: 12.5 mg/kg/injection, schedule: Q01DX009 (ip), vehicle: saline with Tween-80
[21] = dose: 12.5 mg/kg/injection, schedule: Q01DX009 (ip), vehicle: Klucel (hydroxypropylcellulose) (HPC)
[22] = dose: 100.0 mg/kg/injection, schedule: Q01DX009 (ip), vehicle: saline with Tween-80
[23] = dose: 200.0 mg/kg/injection, schedule: Q01DX009 (ip), vehicle: saline with Tween-80
[24] = dose: 50.0 mg/kg/injection, schedule: Q01DX009 (ip), vehicle: saline with Tween-80
[25] = dose: 400.0 mg/kg/injection, schedule: Q01DX009 (ip), vehicle: saline with Tween-80

SMILES: CC[N+](CC)(CC)CC
- T/C [1]: 110 % of control
- T/C (dose: 6.0 mg/kg/injection, schedule: Q01DX009 (ip), vehicle: saline with Tween-80): 183 % of control
- T/C (dose: 9.0 mg/kg/injection, schedule: Q01DX009 (ip), vehicle: saline with Tween-80): 94 % of control
- T/C [2]: 107 % of control
- T/C (dose: 12.5 mg/kg/injection, schedule: Q04DX003 (ip), vehicle: saline): 95 % of control
- T/C [3]: 107 % of control
- T/C [4]: 91 % of control
- T/C [5]: 92 % of control
- T/C [6]: 100 % of control

SMILES: Cn1c(=O)c2c(ncn2C)n(C)c1=O
- T/C (dose: 50.0 mg/kg/injection, schedule: Q01DX010 (ip), vehicle: saline): 100 % of control
- T/C (dose: 100.0 mg/kg/injection, schedule: Q01DX010 (ip), vehicle: saline): 100 % of control
- T/C (dose: 200.0 mg/kg/injection, schedule: Q01DX010 (ip), vehicle: saline): 104 % of control

SMILES: C(#CCN1CCOCC1)CCCN1CCOCC1
- T/C [7]: 95 % of control
- T/C [8]: 100 % of control
- T/C [9]: 100 % of control

SMILES: CCOC(=O)CCSCC(C)(C)C(=O)OCC
- T/C [7]: 90 % of control
- T/C [8]: 100 % of control
- T/C [9]: 95 % of control

SMILES: CC(=O)c1ccc(Cc2ccc(C(C)=O)cc2)cc1
- T/C [10]: 104 % of control
- T/C [11]: 100 % of control
- T/C [12]: 104 % of control
- T/C [13]: 109 % of control
- T/C [14]: 100 % of control
- T/C [15]: 95 % of control

SMILES: O=C(c1cc(Cl)cc(Cl)c1)N1CC1
- T/C [3]: 106 % of control
- T/C [4]: 100 % of control
- T/C [5]: 113 % of control
- T/C [6]: 100 % of control
- T/C [16]: 103 % of control
- T/C [7]: 98 % of control
- T/C [17]: 113 % of control
- T/C [8]: 114 % of control
- T/C [18]: 113 % of control
- T/C [9]: 106 % of control

SMILES: CO[C@@H]1[C@H](O)CC[C@]2(CO2)[C@H]1[C@@]1(C)O[C@@H]1CC=C(C)C
- T/C [1]: 100 % of control
- T/C [19]: 97 % of control
- T/C [20]: 106 % of control
- T/C [2]: 98 % of control
- T/C (dose: 37.5 mg/kg/injection, schedule: Q01DX009 (ip), vehicle: saline with Tween-80): 100 % of control

SMILES: COc1cccc2c1C(=O)c1c(O)c3c(c(O)c1C2=O)C[C@@](O)(C(=O)CO)C[C@@H]3OC1CC(NC(=O)C(F)(F)F)C(O)C(C)O1 (stereo partly specified)
- T/C (dose: 3.13 mg/kg/injection, schedule: Q04DX009 (ip), vehicle: other): 113 % of control
- T/C (dose: 6.25 mg/kg/injection, schedule: Q04DX009 (ip), vehicle: other): 121 % of control
- T/C (dose: 12.5 mg/kg/injection, schedule: Q04DX009 (ip), vehicle: other): 123 % of control

SMILES: Cn1c(=O)c2ncnnc2n(C)c1=O
- T/C (dose: 1.5 mg/kg/injection, schedule: Q01DX009 (ip), vehicle: Klucel (hydroxypropylcellulose) (HPC)): 103 % of control
- T/C (dose: 3.0 mg/kg/injection, schedule: Q01DX009 (ip), vehicle: Klucel (hydroxypropylcellulose) (HPC)): 107 % of control
- T/C (dose: 6.0 mg/kg/injection, schedule: Q01DX009 (ip), vehicle: Klucel (hydroxypropylcellulose) (HPC)): 112 % of control
- T/C (dose: 6.25 mg/kg/injection, schedule: Q01DX009 (ip), vehicle: Klucel (hydroxypropylcellulose) (HPC)): 250 % of control
- T/C (dose: 12.0 mg/kg/injection, schedule: Q01DX009 (ip), vehicle: Klucel (hydroxypropylcellulose) (HPC)): 106 % of control
- T/C [21]: 108 % of control

SMILES: [O-]c1on[n+](C2CCCCC2)c1-c1ccccc1
- T/C (dose: 50.0 mg/kg/injection, schedule: Q04DX003 (ip), vehicle: Klucel (hydroxypropylcellulose) (HPC)): 105 % of control
- T/C (dose: 100.0 mg/kg/injection, schedule: Q01DX001 (ip), vehicle: Klucel (hydroxypropylcellulose) (HPC)): 109 % of control
- T/C [22]: 92 % of control
- T/C [11]: 100 % of control
- T/C (dose: 200.0 mg/kg/injection, schedule: Q01DX001 (ip), vehicle: Klucel (hydroxypropylcellulose) (HPC)): 104 % of control
- T/C [23]: 92 % of control
- T/C [13]: 100 % of control
- T/C (dose: 400.0 mg/kg/injection, schedule: Q01DX001 (ip), vehicle: Klucel (hydroxypropylcellulose) (HPC)): 100 % of control

SMILES: C=Cc1c(C)c(O)cc2c1-c1ccc(O)c(C)c1CC2
- T/C [19]: 104 % of control
- T/C [20]: 104 % of control
- T/C (dose: 25.0 mg/kg/injection, schedule: Q01DX009 (ip), vehicle: saline with Tween-80): 104 % of control
- T/C [24]: 100 % of control

SMILES: NC(=O)c1csc(C2OC(CO)C(O)C2O)n1 (stereo unspecified)
- T/C (dose: 330.0 mg/kg/injection, schedule: Q01DX009 (ip), vehicle: water): 213 % of control
- T/C (dose: 500.0 mg/kg/injection, schedule: Q01DX009 (ip), vehicle: water): 243 % of control
- T/C (dose: 750.0 mg/kg/injection, schedule: Q01DX009 (ip), vehicle: water): 277 % of control

SMILES: CC(=O)OCCC(CCOC(C)=O)=C1N=C(c2ccccc2)OC1=O
- T/C [22]: 120 % of control
- T/C (dose: 300.0 mg/kg/injection, schedule: Q01DX009 (ip), vehicle: saline with Tween-80): 118 % of control
- T/C [25]: 116 % of control

SMILES: CC(=O)[C@H]1[C@H](O)C[C@H]2[C@@H]3CCC4=CC(=O)CC[C@]4(C)[C@@]3(F)[C@@H](O)C[C@@]21C
- T/C [7]: 100 % of control
- T/C [8]: 113 % of control
- T/C [9]: 113 % of control

SMILES: NCCS(=O)(=O)O
- T/C [2]: 90 % of control and 100 % of control
- T/C (dose: 17.5 mg/kg/injection, schedule: Q01DX009 (ip), vehicle: saline): 123 % of control
- T/C [3]: 110 % of control
- T/C (dose: 35.0 mg/kg/injection, schedule: Q01DX009 (ip), vehicle: saline): 123 % of control
- T/C [5]: 100 % of control (2×) and 113 % of control
- T/C (dose: 70.0 mg/kg/injection, schedule: Q01DX009 (ip), vehicle: saline): 107 % of control
- T/C [16]: 86 % of control and 94 % of control
- T/C [17]: 100 % of control
- T/C [18]: 95 % of control and 105 % of control

SMILES: Cc1ncc([N+](=O)[O-])n1CCSC(=N)N
- T/C (dose: 100.0 mg/kg/injection, schedule: Q04DX003 (ip), vehicle: saline with Tween-80): 105 % of control
- T/C (dose: 200.0 mg/kg/injection, schedule: Q04DX003 (ip), vehicle: saline with Tween-80): 105 % of control

SMILES: O=C(O)c1cc(C(=O)O)cc(S(=O)(=O)F)c1
- T/C (dose: 75.0 mg/kg/injection, schedule: Q04DX003 (ip), vehicle: saline with Tween-80): 104 % of control
- T/C [22]: 105 % of control
- T/C (dose: 150.0 mg/kg/injection, schedule: Q04DX003 (ip), vehicle: saline with Tween-80): 108 % of control
- T/C [23]: 95 % of control
- T/C (dose: 300.0 mg/kg/injection, schedule: Q04DX003 (ip), vehicle: saline with Tween-80): 104 % of control

SMILES: CN(C)C(=O)Nc1ccc(Cc2ccc(NC(=O)N(C)C)cc2)cc1
- T/C [24]: 96 % of control
- T/C [22]: 99 % of control
- T/C [23]: 108 % of control
- T/C [25]: 99 % of control

SMILES: CCOC(=O)/C(=C/C(C#N)=C/N(C)C)CC
- T/C (dose: 100.0 mg/kg/injection, schedule: Q01DX001 (ip), vehicle: other): 100 % of control
- T/C (dose: 200.0 mg/kg/injection, schedule: Q01DX001 (ip), vehicle: other): 109 % of control
- T/C (dose: 400.0 mg/kg/injection, schedule: Q01DX001 (ip), vehicle: other): 109 % of control

SMILES: CCCN(CCC)CC(C)O (stereo unspecified)
- T/C [6]: 109 % of control
- T/C [7]: 100 % of control
- T/C [8]: 95 % of control

SMILES: O=C1c2ccccc2C(=O)N1CCC[P+](c1ccccc1)(c1ccccc1)c1ccccc1
- T/C (dose: 1.56 mg/kg/injection, schedule: Q01DX009 (ip), vehicle: Klucel (hydroxypropylcellulose) (HPC)): 102 % of control
- T/C [21]: 151 % of control

SMILES: Cc1ccccc1OCCCCCl
- T/C [22]: 115 % of control
- T/C [23]: 107 % of control
- T/C [25]: 115 % of control

SMILES: CCC(C)C(C)(COC(N)=O)COC(N)=O (stereo unspecified)
- T/C [10]: 90 % of control
- T/C [12]: 86 % of control
- T/C [14]: 95 % of control

SMILES: CN(C)c1ccc(/C=C\c2cc(=O)[nH]c3ccccc23)cc1
- T/C [11]: 87 % of control
- T/C [13]: 91 % of control
- T/C [15]: 87 % of control
